The record followed here is ChEMBL document CHEMBL4373652, “Mechanism of thienopyridone and iminothienopyridinedione inhibition of protein phosphatases” (Medchemcomm, 2019).

The source made the active and inactive calls. No cut-off for these calls is given here.

The inhibition is the relative decrease from the control value, in per cent.

For test [1], the target named is T1, Tyrosine-protein phosphatase non-receptor type 1 (Homo sapiens) (UniProt P18031).
T1 sequence (whole entry): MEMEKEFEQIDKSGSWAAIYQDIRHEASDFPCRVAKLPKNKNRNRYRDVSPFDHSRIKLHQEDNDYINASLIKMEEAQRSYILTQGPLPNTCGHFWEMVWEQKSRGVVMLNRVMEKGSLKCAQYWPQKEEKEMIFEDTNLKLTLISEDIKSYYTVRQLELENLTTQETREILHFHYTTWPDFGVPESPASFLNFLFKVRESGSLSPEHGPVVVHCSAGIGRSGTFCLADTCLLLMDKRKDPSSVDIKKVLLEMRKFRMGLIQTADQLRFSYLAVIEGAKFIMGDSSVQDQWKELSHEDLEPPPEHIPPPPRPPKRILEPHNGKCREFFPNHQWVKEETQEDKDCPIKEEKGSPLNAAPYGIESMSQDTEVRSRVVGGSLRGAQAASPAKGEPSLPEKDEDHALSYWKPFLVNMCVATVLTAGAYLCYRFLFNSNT
Put plainly: Inhibition of human PTP1B at 25 nM using DiFMUP as substrate preincubated with enzyme prior to substrate addition by fluorescence based assay. Particulars: TDE = time-dependent effect.

Test [2] addresses T2, Receptor-type tyrosine-protein phosphatase O (Homo sapiens) (UniProt Q16827).
T2 sequence (whole entry): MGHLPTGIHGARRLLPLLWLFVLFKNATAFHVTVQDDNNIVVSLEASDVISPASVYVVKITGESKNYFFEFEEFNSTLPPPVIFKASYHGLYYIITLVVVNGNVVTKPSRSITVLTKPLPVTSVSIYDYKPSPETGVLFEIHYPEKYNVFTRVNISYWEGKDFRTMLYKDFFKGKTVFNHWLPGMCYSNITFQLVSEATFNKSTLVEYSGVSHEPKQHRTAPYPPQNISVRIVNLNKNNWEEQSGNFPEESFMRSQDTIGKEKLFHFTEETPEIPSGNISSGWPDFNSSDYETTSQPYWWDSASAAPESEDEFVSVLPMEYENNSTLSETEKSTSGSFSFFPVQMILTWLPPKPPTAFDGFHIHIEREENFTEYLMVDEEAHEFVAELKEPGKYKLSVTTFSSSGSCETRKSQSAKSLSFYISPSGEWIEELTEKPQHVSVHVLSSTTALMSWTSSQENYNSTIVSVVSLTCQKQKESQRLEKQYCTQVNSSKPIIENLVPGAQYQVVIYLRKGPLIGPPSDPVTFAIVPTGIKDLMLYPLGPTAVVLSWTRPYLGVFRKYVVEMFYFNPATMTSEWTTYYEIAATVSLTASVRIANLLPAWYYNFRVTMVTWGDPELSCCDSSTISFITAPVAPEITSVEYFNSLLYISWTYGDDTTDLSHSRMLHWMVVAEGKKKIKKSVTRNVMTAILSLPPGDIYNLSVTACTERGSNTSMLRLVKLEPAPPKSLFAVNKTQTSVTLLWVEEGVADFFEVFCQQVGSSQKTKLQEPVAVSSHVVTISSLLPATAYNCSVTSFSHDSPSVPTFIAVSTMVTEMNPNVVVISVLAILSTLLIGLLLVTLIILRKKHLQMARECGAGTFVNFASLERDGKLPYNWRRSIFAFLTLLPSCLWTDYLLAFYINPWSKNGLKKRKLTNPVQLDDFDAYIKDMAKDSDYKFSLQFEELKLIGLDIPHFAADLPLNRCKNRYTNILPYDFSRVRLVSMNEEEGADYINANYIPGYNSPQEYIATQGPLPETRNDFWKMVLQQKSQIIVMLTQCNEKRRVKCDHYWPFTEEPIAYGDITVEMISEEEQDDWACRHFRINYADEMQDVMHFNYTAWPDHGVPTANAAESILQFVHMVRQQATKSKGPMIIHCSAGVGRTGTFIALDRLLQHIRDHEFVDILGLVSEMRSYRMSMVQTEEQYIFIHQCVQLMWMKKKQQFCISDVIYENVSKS
Put plainly: Inhibition of recombinant human N-terminal His-tagged PTPRO expressed in bacterial expression system assessed as enzyme residual activity at 2 uM using DiFMUP as substrate preincubated with enzyme for 2.5 hrs prior to substrate addition measured for 1 min by fluorescence based assay.

Test [3] is described as follows: Induction of TCEP oxidation at 1 mM in 80% d6-acetone and 20% d6-DMSO incubated for 2 hrs by 15N-1H NMR spectroscopy relative to control.
A short description of test [4]: Induction of TCEP oxidation assessed as increase in rate of reduction of resazurin at 5 uM incubated up to 2 hrs by resazurin based assay. For orientation: Alamar Blue is a resazurin reagent that responds to reducing activity.
Test [5] has as its target T3, Receptor-type tyrosine-protein phosphatase C (Homo sapiens) (UniProt P08575).
T3 sequence (whole entry): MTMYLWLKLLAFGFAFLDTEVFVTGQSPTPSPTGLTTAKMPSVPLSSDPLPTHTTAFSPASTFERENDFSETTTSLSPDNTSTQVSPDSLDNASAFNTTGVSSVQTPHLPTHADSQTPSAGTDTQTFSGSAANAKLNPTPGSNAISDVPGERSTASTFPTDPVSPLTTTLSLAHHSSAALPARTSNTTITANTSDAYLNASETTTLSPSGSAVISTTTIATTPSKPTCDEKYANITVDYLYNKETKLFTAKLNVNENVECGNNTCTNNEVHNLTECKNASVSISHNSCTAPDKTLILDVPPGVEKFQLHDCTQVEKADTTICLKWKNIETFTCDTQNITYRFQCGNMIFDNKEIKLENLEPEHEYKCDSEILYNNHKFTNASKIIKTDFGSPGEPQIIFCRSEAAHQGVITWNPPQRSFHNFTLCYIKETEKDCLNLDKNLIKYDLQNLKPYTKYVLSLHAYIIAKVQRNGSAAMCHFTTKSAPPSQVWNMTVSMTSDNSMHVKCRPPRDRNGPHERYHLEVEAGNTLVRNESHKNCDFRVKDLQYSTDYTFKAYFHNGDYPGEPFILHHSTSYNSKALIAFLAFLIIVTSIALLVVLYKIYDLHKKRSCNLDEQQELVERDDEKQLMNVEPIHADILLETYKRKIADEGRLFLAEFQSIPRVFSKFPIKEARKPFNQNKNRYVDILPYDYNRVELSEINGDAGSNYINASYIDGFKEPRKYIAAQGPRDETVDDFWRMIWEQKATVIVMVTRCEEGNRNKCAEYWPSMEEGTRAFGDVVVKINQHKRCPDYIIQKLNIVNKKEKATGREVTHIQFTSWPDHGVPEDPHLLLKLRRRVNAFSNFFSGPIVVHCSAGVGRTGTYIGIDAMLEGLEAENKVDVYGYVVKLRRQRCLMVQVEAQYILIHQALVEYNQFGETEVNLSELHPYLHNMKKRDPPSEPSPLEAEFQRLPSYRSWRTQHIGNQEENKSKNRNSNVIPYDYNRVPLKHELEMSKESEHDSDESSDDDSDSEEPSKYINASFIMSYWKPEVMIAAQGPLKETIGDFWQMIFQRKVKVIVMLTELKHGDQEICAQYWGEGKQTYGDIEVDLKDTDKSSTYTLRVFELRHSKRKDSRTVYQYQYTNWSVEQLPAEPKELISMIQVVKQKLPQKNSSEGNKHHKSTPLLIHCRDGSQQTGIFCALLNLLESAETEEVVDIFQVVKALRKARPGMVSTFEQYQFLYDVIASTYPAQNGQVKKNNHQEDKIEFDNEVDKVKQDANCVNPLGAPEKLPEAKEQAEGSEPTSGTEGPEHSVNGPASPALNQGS
Kind of test: Inhibition of C-terminal 6His-tagged PTPRC (627-1228 residues) (unknown origin) expressed in Escherichia coli BL21 (DE3) at 2 uM using DiFMUP as substrate preincubated with enzyme and catalase for 2.5 hrs prior to substrate addition measured for 1 min by fluorescence based assay.

The target of test [6] is T2, Receptor-type tyrosine-protein phosphatase O (Homo sapiens). Kind of test: Inhibition of recombinant human N-terminal His-tagged PTPRO expressed in bacterial expression system assessed as rate of product DiFMU formed at 2 uM using DiFMUP as substrate preincubated with enzyme for 2.5 hrs prior to substrate addition measured for 1 min by fluorescence based assay (reference value: 209.7 nM/sec).

For a further test, the species on record is Homo sapiens. Put plainly: Inhibition of recombinant human C-terminal 6His-tagged PTPN22 G126V/V147G double mutant expressed in bacterial expression system assessed as rate of product DiFMU formed at 2 uM using DiFMUP as substrate preincubated with enzyme for 2.5 hrs followed by substrate addition measured for 1 min by fluorescence based assay (reference value: 11.9 nM/sec).

Test [7] is described as follows: Induction of glutathione oxidation at 1 mM incubated for 2 hrs in 80% d6-DMSO and 20% D2O by 15N-1H NMR spectroscopy relative to control.
A further test is filed under the species Mus musculus. Put plainly: Inhibition of mouse His-tagged PRL3 C49A mutant at 0.6 uM using DiFMUP as substrate preincubated with enzyme for 10 mins prior to substrate addition by fluorescence based assay relative to control.
In test [8] the target is Protein tyrosine phosphatase type IVA 3 (Mus musculus) (UniProt Q9D658). Kind of test: Inhibition of mouse His-tagged wild type PRL3 at 0.6 uM using DiFMUP as substrate preincubated with enzyme for 10 mins prior to substrate addition by fluorescence based assay relative to control.
Protein tyrosine phosphatase type IVA 3 (Mus musculus), sequence (Q9D658 whole entry): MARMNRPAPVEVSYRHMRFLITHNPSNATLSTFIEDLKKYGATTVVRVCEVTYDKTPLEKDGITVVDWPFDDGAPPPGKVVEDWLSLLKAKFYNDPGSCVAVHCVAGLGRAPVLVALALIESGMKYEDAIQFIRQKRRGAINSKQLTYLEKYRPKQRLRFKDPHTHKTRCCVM
Test [9] in a line: Induction of TCEP oxidation assessed as increase in rate of reduction of resazurin at 5 uM after 3 to 5 secs by resazurin based assay.

As for `N=C1C(=O)NC(=O)c2cc(-c3ccccc3)sc21`, the inhibition entry in test [1] was “Tde”. For the same compound, the figures for the Activity (in [2]; in test [6]; in the test filed under Homo sapiens) were 7.3%, 15.3 nM/s and 0.3 nM/s, respectively. This compound also came in with a fold change (FC) in test [3] of 20. Further, the result in test [4] was Active. The inhibition result in [5] was “inactive”.

As to `Nc1c[nH]c(=O)c2cc(-c3ccccc3)sc12`, in test [7], the Activity was determined as 70%. Besides, the values for the inhibition (in the test filed under Mus musculus; in test [8]; in test [1]) were 10%, 55% and “Tde”, respectively. Moreover, the fold change (FC) in test [3] was determined as 5. The outcome in test [4] and in test [9] was Active.
